Series [1] can be described thus: Plasma protein binding assay (PPB), equilibrium dialysis. It is filed as in vitro ADME. As to conditions: bovine, 10% FCS in PBS, read-out: PPB 10% FCS (% fu). The protocol: Binding of test compounds to plasma was determined using equilibrium dialysis (ED) and quantitative mass spectrometry interfaced with liquid chromatography (LC-MS). In brief, ED was performed with dialysis devices consisting of two chambers separated by a semipermeable membrane with a molecular weight cut-off of 5-10 kg/mol. One chamber was filled with 10% FCS in PBS containing 1-10 μmol/L test compound and the other chamber was filled with phosphate-buffer saline (PBS) with or without dextran. The dialysis chamber was incubated for 3-5 hours at 37° C. After incubation, protein was precipitated from aliquots of each chamber and the concentration of test compound in the supernatant of the plasma-containing compartment (cserum) and of the buffer-containing compartment (cbuffer) was determined by LC-MS. The fraction of unbound test compound (not bound to plasma) (fu) was calculated according to the following equation: […]
A general note: In equilibrium dialysis free small molecules cross a membrane that holds back macromolecules.

The next series has as its system LOVO cells. In words: LOVO CTG proliferation assay (120 h) (CRC, G13D). The series is classed as cell-based. As to conditions: Homo sapiens. On the procedure:
LOVO cells (ATCC CCL-229) are dispensed into 384-well plates, flat and clear bottom (Greiner, PNr. 781091) at a density of 1000 cells per well in 60 μL DMEM (Sigma D6429)+10% Fetal Calf Serum (HyClone, PNr.: SH30084.03) and incubated at 37° C. in a CO2 incubator overnight. The next day, compounds (10 mM stock in DMSO) are added with the ECHO acoustic liquid handler system (Beckman Coulter), including DMSO controls. Plates are incubated for 120 h, and cell viability is measured using CellTiter-Glo luminescent cell viability reagent (Promega product code G7570). Viability (stated as percent of control) is defined as relative luminescence units RLU of each well divided by the RLU of cells in DMS0 controls. IC50 values are determined from viability measurements by non-linear regression using a four-parameter model.

The next series deals with T1, KRAS (G12D)::SOS1 (Homo sapiens, UniProt P01116, G12D).
T1 construct: KRAS (G12D) 1-169, N-terminal 6His-tag, C-terminal avi-tag; 6His-tag (N); purchased Xtal BioStructures, Inc. (KRAS); Viva Biotech Ltd (SOS1)
In words: KRAS::SOS1 AlphaScreen binding assay, KRAS G12D. As to conditions: read-out: KRASG12D IC50. An excerpt: This assay can be used to examine the potency with which compounds according to the invention binding to (mutated) KRAS inhibit the protein-protein interaction between SOS1 and (mutated) KRAS e.g., KRAS WT, KRAS G12C, KRAS G12D, KRAS G12V, KRAS G13D. […] Low IC50 values in this assay setting are indicative of strong inhibition of protein-protein interaction between SOS1 and KRAS:
These assays measure the inhibitory effect of compounds on KRAS mutant protein-protein interactions using the Alpha Screen technology by Perkin Elmer
The following (mutant) enzyme forms of KRAS and interacting proteins are used in these assays at the given concentrations: • KRAS (G12D) 1-169, N-terminal 6His-tag, C-terminal avi-tag (Xtal BioStructures, Inc.); final assay concentration 10 nM and SOS1 564-1049, N-terminal 229 GST-tag, TEV cleavage site (Viva Biotech Ltd); final assay concentration 5 nM; • KRAS (G12C) 1-169, N-terminal 6His-tag for purification, cleaved off, C-terminal avi-tag, biotinylated, mutations: C51S, C80L, C118S (in house); final assay concentration 7.5 nM and SOS1 564-1049, N-terminal 229 GST-tag, TEV cleavage site (Viva Biotech Ltd); final assay concentration 5 nM; • KRAS (G12V) 1-169, N-terminal 6His-tag for purification, cleaved off, C-terminal avi-tag, biotinylated, TEV cleavage site, mutation: C118S, GDP loaded (in house); final assay concentration 10 nM and SOS1 564-1049, N-terminal 229 GST-tag, TEV cleavage site (Viva Biotech Ltd); final assay concentration 10 nM; • KRAS (G13D) 1-169, N-terminal 6His-tag for purification, cleaved off, C-terminal avi-tag, biotinylated, TEV cleavage site, mutation: C118S, GDP loaded (in house); final assay concentration 10 nM and SOS1 564-1049, N-terminal 229 GST-tag, TEV cleavage site (Viva Biotech Ltd); final assay concentration 10 nM; • KRAS (WT) 1-169, N-terminal 6His-tag for purification, cleaved off, C-terminal avi-tag, biotinylated, TEV cleavage site, mutation: C118S, GDP loaded (in house); final assay concentration 10 nM and SOS1 564-1049, N-terminal 229 GST-tag, TEV cleavage site (Viva Biotech Ltd); final assay concentration 10 nM.
Test compounds dissolved in DMSO are dispensed onto assay plates (Proxiplate 384 PLUS, white, PerkinElmer; 6008289) using an Access Labcyte Workstation with the Labcyte Echo 55×. For the chosen highest assay concentration of 100 μM, 150 nL of compound solution are transferred from a 10 mM DMSO compound stock solution. A series of eleven fivefold dilutions per compound are transferred to the assay plate, compound dilutions are tested in duplicates. DMSO are added as backfill to a total volume of 150 nL.
The assays run on a fully automated robotic system in a darkened room below 100 Lux. To 150 nl of compound dilution 10 μl of a mix including KRAS mutant protein, SOS1 (final assay concentrations see above) and GDP nucleotide (Sigma G7127; final assay concentration 10 μM) in assay buffer (1×PBS, 0.1% BSA, 0.05% Tween 20) are added into columns 1-24.
After 30 minutes incubation time 5 μl of Alpha Screen bead mix in assay buffer are added into columns 1-23. Bead mix consists of AlphaLISA Glutathione Acceptor Beads (PerkinElmer, Cat No AL109) and AlphaScreen Streptavidin Donor Beads (PerkinElmer Cat No 6760002) in assay buffer at a final assay concentration of 10 μg/ml each.
Plates are kept at room temperature in a darkened incubator. After an additional 60 minutes incubation time the signal is measured in a PerkinElmer Envision HTS Multilabel Reader using the AlphaScreen specs from PerkinElmer.
Each plate contains up to 16 wells of a negative control depending on the dilution procedure (platewise or serial) (DMSO instead of test compound; with KRAS mutant::SOS1 GDP mix and bead mix; column 23) and 16wells of a positive control (DMSO instead of test compound; with KRAS mutant::SOS1 GDP mix w/o bead mix; column 24).
As internal control known inhibitors of KRAS mutant::SOS1 interaction can be measured on each compound plate. […]
In general terms: Alpha assays give light when donor and acceptor beads are brought close together.

T1 sequence (P01116 1-169 isoform P01116-2 G12D): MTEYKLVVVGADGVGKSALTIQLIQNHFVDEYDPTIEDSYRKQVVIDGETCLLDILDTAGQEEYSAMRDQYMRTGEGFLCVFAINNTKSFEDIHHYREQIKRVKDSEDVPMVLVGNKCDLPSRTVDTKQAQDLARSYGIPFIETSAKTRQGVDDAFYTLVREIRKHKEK

Consider `C[C@H](Oc1cc(Nc2ccncn2)nc(-c2noc3c2CCC[C@@]32CCCc3sc(N)c(C#N)c32)n1)[C@@H]1CCCN1C` [II-15], for which the fraction unbound in series [1] was found to be 0.5. For the same molecule, the figures for the IC50 in the series with LOVO cells and at KRAS (G12D)::SOS1 were 708 nM and 3 nM, respectively.
Turning to `C[C@H](Oc1cc(Nc2ncccn2)nc(-c2noc3c2CCC[C@@]32CCCc3sc(N)c(C#N)c32)n1)[C@@H]1CCCN1C` [II-17], the fraction unbound in series [1] is 0.28. Also, the IC50 (commonly the concentration that gives 50% inhibition) with LOVO cells stood at 297 nM; on KRAS (G12D)::SOS1 it was 2 nM.
Regarding `C[C@H](Oc1cc(Nc2cccnn2)nc(-c2noc3c2CCC[C@@]32CCCc3sc(N)c(C#N)c32)n1)[C@@H]1CCCN1C` [II-18], in series [1], the fraction unbound amounted to 0.61. In addition, the figures for the IC50 in the series with LOVO cells and on KRAS (G12D)::SOS1 were 1120 nM and 2 nM, respectively.
Turning to `C[C@H](Oc1cc(O[C@H]2CN(C)C(C)(C)C2)nc(-c2noc3c2CCC[C@@]32CCCc3sc(N)c(C#N)c32)n1)[C@@H]1CCCN1C` [II-19], in series [1], the fraction unbound turned out to be 0.12. The IC50 stood at 344 nM in the series with LOVO cells and 1 nM at KRAS (G12D)::SOS1.
`C[C@H](Oc1cc(N(C)CCN(C)C)nc(-c2noc3c2CCC[C@@]32CCCc3sc(N)c(C#N)c32)n1)[C@@H]1CCCN1C` [II-20]: the fraction unbound in series [1] worked out at 0.8. Also, the IC50 is 139 nM in the series with LOVO cells and 2 nM on KRAS (G12D)::SOS1.
The like results for `C[C@H](Oc1cc(OCC2(N(C)C)CC2)nc(-c2noc3c2CCC[C@@]32CCCc3sc(N)c(C#N)c32)n1)[C@@H]1CCCN1C` [II-21] were, in that order, 0.72, 186 nM and 1 nM.
The like results for `C[C@H](Oc1cc(OCC2(N(C)C)COC2)nc(-c2noc3c2CCC[C@@]32CCCc3sc(N)c(C#N)c32)n1)[C@@H]1CCCN1C` [II-22] were, in that order, 0.46, 39 nM and 1 nM.
`COc1c(OCC2(N(C)C)COC2)nc(-c2noc3c2CCC[C@@]32CCCc3sc(N)c(C#N)c32)nc1O[C@@H](C)[C@@H]1CCCN1C` [II-25]: the fraction unbound in series [1] amounted to 0.48. Further, the IC50 in the series with LOVO cells worked out at 35 nM; on KRAS (G12D)::SOS1, 1 nM.
As to `C[C@H]1CN(C)CCCN1c1cc(O[C@@H]2CNC2(C)C)nc(-c2noc3c2CCC[C@@]32CCCc3sc(N)c(C#N)c32)n1` [II-28], the fraction unbound in series [1] is 0.59. The results for the IC50 with LOVO cells and on KRAS (G12D)::SOS1 were 3380 nM and 1 nM, respectively.
In the case of `C[C@H](Oc1cc(O[C@@H]2CNC[C@@H]2F)nc(-c2noc3c2CCC[C@@]32CCCc3sc(N)c(C#N)c32)n1)[C@@H]1CCCN1C` [II-29], the fraction unbound in series [1] stood at 0.52. The IC50 was 216 nM in the series on LOVO cells and 1 nM at KRAS (G12D)::SOS1.
With `CO[C@@H]1C[C@@H]([C@H](C)Oc2cc(O[C@@H]3CNC3(C)C)nc(-c3noc4c3CCC[C@@]43CCCc4sc(N)c(C#N)c43)n2)N(C)C1` [II-30], the fraction unbound in series [1] came out at 0.3. Further, the IC50 came out at 130 nM in the series with LOVO cells and 1 nM on KRAS (G12D)::SOS1.
Turning to `C[C@H](Oc1cc(O[C@@H]2CNC2(C)C)nc(-c2noc3c2CCC[C@@]32CCCc3sc(N)c(C#N)c32)n1)[C@@H]1C[C@@H](F)CN1C` [II-31], in series [1], the fraction unbound was found to be 0.31. Also, the IC50 came out at 202 nM in the series on LOVO cells and 1 nM at KRAS (G12D)::SOS1.

For the origin of these results see patent US20250129095A1, “ANNULATED 2-AMINO-3-CYANO THIOPHENES AND DERIVATIVES FOR THE TREATMENT OF CANCER” (Boehringer Ingelheim Int'l GmbH Corp., priority 2021, published 2025).
